The values below are quoted from earlier work in patent US20250261683A1, “ORAL COMPOSITION COMPRISING ENCAPSULATED PH ADJUSTING AGENT” (NICOVENTURES TRADING LIMITED, priority 2022, published 2025).

The conditions of data set [1]: descriptive statement.
For data set [2] the following is noted: descriptive statement; isomerizes to trans-bixin.

Regarding `COC(=O)/C=C/C(C)=C\C=C\C(C)=C\C=C\C=C(C)\C=C\C=C(C)\C=C\C(=O)O` [bixin, (2E,4E,6E,8E,10E,12E,14E,16Z,18E)-20-methoxy-4,8,13,17-tetramethyl-20-oxoicosa-2,4,6,8,10,12,14,16,18-nonaenoic acid], in data set [1], the “solubility in fats and alcohols” value was “soluble”; the solubility in water entry is given as “insoluble”. In addition, in data set [2], the “chemical stability when isolated” value is given as “chemically unstable”.
`CC(/C=C/C=C(C)/C=C/C(=O)O)=C\C=C\C=C(C)\C=C\C=C(C)\C=C\C(=O)O` (stereo in doubt) [norbixin, (2E,4E,6E,8E,10E,12E,14E,16E,18E)-4,8,13,17-tetramethylicosa-2,4,6,8,10,12, 14,16, 18-nonaenedioic acid]: the solubility in water result in data set [1] is “water-soluble”.
